{"source": "patent US12622448B2", "about": "(Givaudan SA, priority 2019, dated 2026)", "key": {"[1]": {"experiment": "Expert taster comparison with and without Amadori compound, cheese sauce", "details": "10 ppm, expert tasters (5-7)", "experimental": "(§1) The following formulations were prepared with and without Amadori compound and tasted by expert tasters (5-7) and compared. The Amadori compound was dosed in the consumable with no additional heating required.\nBase: 33.46% Maltodextrin 10DE; 29.00% Starch Ultrasphere 2000; 10.00% Cheddar Cheese (white); 9.00% non-fat milk powder; 6.20% Whey; 5.00% canola shortening powder; 4.25% salt, 40 mesh; 0.35% yeast extract powder; 0.10% citric acid; 0.10% lactic acid; 2.54% cheese flavor."}, "[2]": {"experiment": "Expert taster comparison with and without Amadori compound, vanilla flavored milk", "details": "expert tasters (5-7)", "experimental": "as §1"}, "[3]": {"experiment": "Expert taster comparison with and without Amadori compound, chocolate flavored milk", "details": "5% sugar, 0.05% carrageenan, expert tasters (5-7)", "experimental": "as §1"}, "[4]": {"experiment": "Expert taster comparison with and without Amadori compound, almond milk", "details": "2 ppb; base: commercially available sweetened vanilla almond milk; expert tasters (5-7)", "experimental": "as §1"}, "[5]": {"experiment": "Expert taster comparison with and without Amadori compound, strawberry flavored yoghurt", "details": "base: 1.7% fat, 4% sugar, strawberry flavor 0.1%, expert tasters (5-7)", "experimental": "as §1\nStrawberry Flavored Yoghurt"}, "[6]": {"experiment": "Expert taster comparison with and without Amadori compound, plain low fat yoghurt", "details": "base: 1.5% fat, 5% sugar, expert tasters (5-7)", "experimental": "as §1"}, "[7]": {"experiment": "Expert taster comparison with and without Amadori compound, ice cream", "details": "10 ppb; base: 14.31% heavy whipping cream, 77.60% whole milk, 8% sucrose, 0.009% vanillin; expert tasters (5-7)", "experimental": "as §1"}, "[8]": {"experiment": "Expert taster comparison with and without Amadori compound, cream filling", "details": "10 ppb; base: 66.4% sucrose, 32% palm oil, 0.2% salt, 0.4% vanilla extract, 1% water; expert tasters (5-7)", "experimental": "as §1"}}, "data": [{"molecule": "CSCC[C@H](NCC(=O)[C@@H](O)[C@H](O)[C@H](O)CO)C(=O)O", "note": "[Fru-Met, N-(1-deoxy-D-fructose-1-yl)-L-methionine]", "values": [{"measurement": "taste/mouthfeel compared with base", "setting": "[1]", "result": "more rich, cheesy, umami, astringent, sharper cheese notes, salty"}]}, {"molecule": "O=C(O)[C@H](Cc1c[nH]cn1)NCC(=O)[C@@H](O)[C@H](O)[C@H](O)CO", "note": "[Fru-His, N-(1-deoxy-D-fructose-1-yl)-L-histidine]", "values": [{"measurement": "taste/mouthfeel compared with base", "setting": "[1]", "result": "more cheesy, slight acidic, aged, meaty, tingling, chalky, increased mouthfeel, creamier"}]}, {"molecule": "CC[C@H](C)[C@H](NCC(=O)[C@@H](O)[C@H](O)[C@H](O)CO)C(=O)O", "note": "[Fru-Ileu, N-(1-deoxy-D-fructose-1-yl)-L-isoleucine]", "values": [{"measurement": "taste/mouthfeel compared with base", "setting": "[1]", "result": "slight acidic, bitter, creamier, increased saltiness"}]}, {"molecule": "O=C(O)C1CCCN1CC1(O)OCC(O)C(O)C1O", "note": "(centres unmarked)", "values": [{"measurement": "taste/mouthfeel compared with base", "setting": "[2]; 0.1 ppb, base: 2% milk fat, 4% sugar, 0.2% vanilla extract", "result": "sweeter linger, more powdery, more fatty body, full and creamy, more dairy impact, creamier mouthfeel, slight waxy mouthfeel"}, {"measurement": "taste/mouthfeel compared with base", "setting": "[2]; 1 ppb, base: 2% milk fat, 4% sugar, 0.2% vanilla extract", "result": "sweeter, increase fullness, creamier mouthfeel, more dairy, slight waxy mouthfeel"}, {"measurement": "taste/mouthfeel compared with base", "setting": "[2]; 20 ppm, base: half full milk, 5% sugar, 0.1% vanillin", "result": "slightly fuller, richer than base, fuller like fat, sweeter"}, {"measurement": "taste/mouthfeel compared with base", "setting": "[2]; δ ppm, base: 2% fat milk, 4% sugar, 0.15% vanilla flavor", "result": "sweeter, more rich creamy, slightly sweeter, juicy, slight metallic and mouth drying"}, {"measurement": "taste/mouthfeel compared with base", "setting": "[3]; 0.1 ppb, base: 2% milk fat, 2% cocoa powder", "result": "creamy, full, richer chocolate, slight waxy, more cocoa impact"}, {"measurement": "taste/mouthfeel compared with base", "setting": "[3]; 1 ppb, base: 2% milk fat, 2% cocoa powder", "result": "more chocolate linger, more chocolate, more complex, full mouthfeel, sweeter impression, thicker, waxy, slight tingle"}, {"measurement": "taste/mouthfeel compared with base", "setting": "[3]; 10 ppm, base: 2% fat milk, 20/cocoa powder", "result": "more rich, more body, more real chocolate profile, slight increase in bitterness"}, {"measurement": "taste/mouthfeel compared with base", "setting": "[4]", "result": "more creamy, stronger vanilla flavor, more body, more creamy mouthfeel; sweeter and more salty"}, {"measurement": "taste/mouthfeel compared with base", "setting": "[5]; 1 ppb", "result": "hardly any effect noticed"}, {"measurement": "taste/mouthfeel compared with base", "setting": "[5]; 10 ppb", "result": "sweeter, more creamy, richer mouthfeel, more fruity"}, {"measurement": "taste/mouthfeel compared with base", "setting": "[6]; 5 ppm", "result": "less sour, sweeter, creamy"}, {"measurement": "taste/mouthfeel compared with base", "setting": "[6]; 10 ppm", "result": "increase upfront sweet, less sour"}, {"measurement": "taste/mouthfeel compared with base", "setting": "[6]; 25 ppm", "result": "metallic linger, increase overall and upfront sweet"}, {"measurement": "taste/mouthfeel compared with base", "setting": "[7]", "result": "more creamy, sweeter, slightly more body and mouth round effect, slightly more milk fat taste"}, {"measurement": "taste/mouthfeel compared with base", "setting": "[8]", "result": "more fatty and creamy, sweeter and more salty, more buttery profile"}, {"measurement": "taste/mouthfeel compared with base", "setting": "[1]", "result": "denser, cheesier, smooth, saltier, creamier mouthfeel, fresher dairy note, rich, slight metallic and astringent"}]}, {"molecule": "O=C(O)C(CO)NCC1(O)OCC(O)C(O)C1O", "note": "(centres unmarked) [Fru-Ser]", "values": [{"measurement": "taste/mouthfeel compared with base", "setting": "[1]", "result": "cheesy, creamy, rich, tingling, metallic, thick, smooth"}]}]}
